Consider 16 molecules from patent US4795814A, “Process for preparing novel dihydropyridine derivatives” (Otsuka Pharmaceutical Co., Ltd., priority 1984, dated 1989).

Where two headings read alike, the source gives them in different places.

The target of assay [1] is T1, Calmodulin-dependent cyclic-AMP phosphodiesterase (EC 3.1.4.17) (Bos taurus, UniProt P14100).
T1 construct: An enzyme substance isolated from the heart of bovine and purified partially; from tissue; host or cells: bovine heart
The experiment in a line: Pharmacological Test-2 (2): Cyclic-AMP phosphodiesterase inhibitory activity (EGTA in place of CaCl2). It is filed as biochemical, bovine. The text has this: (§1) (2) Calmodulin-dependent cyclic-AMP phosphodiesterase (EC 3.1.4.17): An enzyme substance isolated from the heart of bovine and purified partially by a method of modified version of the disclosure in H. C. Ho, T. S. Teo, et al.: "Biochim. Biophys. Acta", 429, 461 (1976).
(§2) (3) 5'-Nucleotidase (EC 3.1.3.5): Grade IV substance (isolated from Crotalus adamanteus venom) manufactured by Sigma & Co.
(§3) (4) Others: Remainder of the reagents used in the test were those of reagent grade chemicals manufactured by Wako Pure-Chemical Industries, Ltd.
(§4) Calmodulin inhibitory activity of each of the test compounds was measured by a method of modified version of the disclosure in T. S. Teo and T. H. Wang: "J. Bio. Chem.", 248, 588 (1973).
(§5) (3) 5'-Nucleotidase: One unit thereof hydrolyzes 1.0 micromole of inorganic phosphorus from adnosine 5'-monophosphate per minute at pH 9.0 at 37° C.
(§6) 40 mM of Imidazol, 20 mM of MgCl2, 20 mM of CaCl2, 0.008 […] of cyclic-AMP phosphodiesterase, 1.0 unit of calmodulin, 0.2 unit of 5'-nucleotidase and 1.0 ml of 10 mM-tris(hydroxymethyl)aminomethane/HCl buffer solution (pH 7.0) containing 0.5 mM of cyclic-AMP were mixed together, and reacted at 30° C. for 30 minutes. Each of the test compounds were dissolved in methanol or N,N-dimethylformamide as the solvent, provided that the quanitty of the solvent was not exceed 2% of the total amount of the mixture. After the reaction was completed, the reaction mixture was ice-cooled, and 0.5 ml each of aqueous solutions of 16.5%-trichloroacetic acid, 1%-thiourea, 3%-ammonium ferrous sulfate were respectively added to the reaction mixture. Further, 0.15 ml of 4.4%-ammonium molibdate solution was added to the mixture and the whole of the mixture was stirred, and was centrifuged at 3,000 r.p.m. for 10 minutes. Then, the centrifuged mixture was allowed to stand at a room temperature for 20 minutes. The OD660 nm (optical density at 660 nm) was measured.
(2) Cyclic-AMP phosphodiesterase inhibitory activity:
The reaction was conducted by a method similar to that described in (1) as mentioned above, except that 1 mM of EGTA [ethylene glycol-bis(β-aminoethyl ether)-N,N-tetraacetic acid] was used in place of 20 mM of CaCl2. The reaction was conducted for 3 hours.

For assay [2], the target named is T2, Calmodulin-cyclic-AMP phosphodiesterase (Bos taurus, UniProt P14100+P62157).
T2 construct: An enzyme substance isolated from the heart of bovine and purified partially; which was isolated from the brain of bovine, and purified so as to be considered as a single substance; from tissue; host or cells: bovine heart (phosphodiesterase); the calmodulin is a bovine brain product of Amano & Co
The experiment in a line: Pharmacological Test-2 (1): Calmodulin-cyclic-AMP phosphodiesterase inhibitory activity (with calmodulin, CaCl2). The settings on record: in the presence of calmodulin, CaCl2, pH 7.0, 30° C., 30 minutes. The class given is biochemical, bovine.
Source text: (1) Calmodulin: A calmodulin product manufactured by Amano & Co., which was isolated from the brain of bovine, and purified so as to be considered as a single substance with respect to SDS-page (polyacrylamide gel electrophoresis) method.
as §1, §2, §3, §4
(2) Calmodulin: One unit thereof stimulates 0.015 activated unit of cyclic-AMP phosphodiesterase to 50% of the maximum activity of the enzyme.
as §5
(3) Reactions in the tests (1) Calmodulin-cyclic-AMP phosphodiesterase inhibitory activity:
as §6

Assay [3] has as its system SHR-rats (spontaneously hypertensive rats). Briefly: Pharmacological Test-1: vasodilative effect, systolic blood pressure of SHR-rats by tail cuff method after oral administration. The settings on record: 30 mg/kg p.o. The class given is in vivo.
Description: Vasodilative effects of the dihydropyridine derivatives of the present invention were determined by measuring the systolic blood pressures of test animals before and after the administration of test compound.
Systolic blood pressures and heart beat of SHR-rats (spontaneously hypertensive rats) were determined by a "tail cuff method". Thus the test animal was placed in a thermostat chamber (Type: FR-12RS, manufactured by Isuze & Co.) and was warmed at 40° C. for 15 minutes so as to vasodilate the tail arteria, the systolic blood pressures were measured by an electro sphygmomanometer (Type: PE-300, manufactured by Narco-Biosystems, Inc.) and recorded by an ink-writing recorder (Type: RECTIHORIZ 8s, manufactured by San-Ei Instrument & Co.). The experiments were conducted under non-anesthetized and semi-confinement conditions. The test compound was orally administered forcedly by using a sonde for oral administration. The test compound was suspended in 0.15%-gum arabic powder aqueous solution so as to make the quantity of the test compound to 2.5 ml/kg. The test animal was not fasted, and the systolic blood pressures (mm-Hg) were measured before the administration (hereinafter referred to as "PRE") and after the administration (8, 24, 30, 48, 54 and 72 hours after the administration) of the test compound. The data of systolic blood pressure measured before the administration are shown in absolute value of mmHg, and the data measured after the administration are shown in the differences from the absolute values.
The mark [4] stands for this setting: 1 mM EGTA in place of CaCl2, 3 hours, read-out: Cyclic-AMP phosphodiesterase IC50 (converted).

For orientation: IC50 means the concentration needed to halve the response being measured.

T1 sequence (P14100 1-514 isoform P14100-2): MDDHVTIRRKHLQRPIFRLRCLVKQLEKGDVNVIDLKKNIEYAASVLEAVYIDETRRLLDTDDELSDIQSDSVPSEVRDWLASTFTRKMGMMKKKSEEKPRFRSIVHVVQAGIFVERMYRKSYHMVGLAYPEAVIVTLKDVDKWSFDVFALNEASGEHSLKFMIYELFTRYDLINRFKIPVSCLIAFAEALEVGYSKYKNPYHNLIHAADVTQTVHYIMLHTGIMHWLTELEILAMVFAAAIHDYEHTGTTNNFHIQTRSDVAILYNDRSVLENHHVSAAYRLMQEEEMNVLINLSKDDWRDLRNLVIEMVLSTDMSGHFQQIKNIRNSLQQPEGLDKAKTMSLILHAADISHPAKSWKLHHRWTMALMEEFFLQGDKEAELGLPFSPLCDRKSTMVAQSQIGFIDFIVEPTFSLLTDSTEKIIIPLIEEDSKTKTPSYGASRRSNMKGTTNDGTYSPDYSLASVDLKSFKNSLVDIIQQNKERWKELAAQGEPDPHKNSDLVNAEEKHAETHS

Consider `COC(=O)C1=C(C)NC(C)=C(C(=O)OC/C=C/c2ccc(OC(C)=O)cc2)C1c1cccc([N+](=O)[O-])c1` (stereo not drawn) [Example 14], for which the IC50 in assay [1] (setting [4]) is 98.7 µM.

On to `COC(=O)C1=C(C)NC(C)=C(C(=O)OC/C=C/c2ccc(O)cc2)C1c1cccc([N+](=O)[O-])c1` (stereo not drawn) [Test Compound 1, Methyl 3-(4-hydroxyphenyl)-2(E)-propenyl 1,4-dihydro-2,6-dimethyl-4-(3-nitrophenyl)pyridine-3,5-dicarboxylate], for which the IC50 in assay [1] (setting [4]) was 129 µM; in assay [2] it was 8.83 µM.

`COC(=O)C1=C(C)NC(C)=C(C(=O)OC/C=C/c2ccccc2)C1c1cccc([N+](=O)[O-])c1` (stereo not drawn) [Test Compound 2, Methyl 3-phenyl-2(E)-propenyl 1,4-dihydro-2,6-dimethyl-4-(3-nitrophenyl)pyridine-3,5-dicarboxylate]: in assay [1] (setting [4]), the IC50 is over 223 µM.

Take `COC(=O)C1=C(C)NC(C)=C(C(=O)OC/C=C/C=C/c2ccc(O)cc2)C1c1cccc([N+](=O)[O-])c1` (stereo not drawn) [Test Compound 3, Methyl 5-(4-hydroxyphenyl)-2(E),4(E)-pentadienyl 1,4-dihydro-2,6-dimethyl-4-(3-nitrophenyl)-pyridine-3,5-dicarboxylate]: in assay [1] (setting [4]), the IC50 is over 204 µM.

Take `COC(=O)C1=C(C)NC(C)=C(C(=O)OC/C=C/c2ccc(O)c(OC)c2)C1c1cccc([N+](=O)[O-])c1` (stereo not drawn) [Test Compound 7, Methyl 3-(3-methoxy-4-hydroxyphenyl)-2(E)-propenyl 1,4-dihydro-2,6-dimethyl-4-(3-nitrophenyl)pyridine-3,5-dicarboxylate]: the IC50 in assay [1] (setting [4]) was 174 µM.

As for `COC(=O)C1=C(C)NC(C)=C(C(=O)OC/C=C/c2ccc(OC)cc2)C1c1cccc([N+](=O)[O-])c1` (stereo not drawn) [Test Compound 8], the half-inhibitory concentration (IC50) in assay [1] (setting [4]) was over 209 µM.

Take `COC(=O)C1=C(C)NC(C)=C(C(=O)OC/C=C/c2ccc(O)c(Cl)c2)C1c1cccc([N+](=O)[O-])c1` (stereo not drawn) [Test Compound 9, Methyl 3-(3-chloro-4-hydroxyphenyl)-2(E)-propenyl 1,4-dihydro-2,6-dimetyyl-4-(3-nitrophenyl)pyridine-3,5-dicarboxylate]: the IC50 in assay [1] (setting [4]) is over 200 µM.

Regarding `COC(=O)C1=C(C)NC(C)=C(C(=O)OCC#Cc2ccc(O)cc2)C1c1cccc([N+](=O)[O-])c1` (stereo not drawn) [Test Compound 10, Methyl 3-(4-hydroxyphenyl)-2-propynyl 1,4-dihydro-2,6-dimetyyl-4-(3-nitrophenyl)-pyridine-3,5-dicarboxylate], the half-inhibitory concentration (IC50) in assay [1] (setting [4]) was 28.1 µM; in assay [2], 1.69 µM.

Take `COC(=O)C1=C(C)NC(C)=C(C(=O)OC/C=C/c2ccccc2O)C1c1cccc([N+](=O)[O-])c1` (stereo not drawn) [Test Compound 11, Methyl 3-(2-hydroxyphenyl)-2(E)-propenyl 1,4-dihydro-2,6-dimethyl-4-(3-nitrophenyl)-pyridine-3,5-dicarboxylate]: in assay [1] (setting [4]), the IC50 was 26.9 µM.

For `COC(=O)C1=C(C)NC(C)=C(C(=O)OC/C=C/c2ccc(O)cc2)C1c1ccccc1C(F)(F)F` (stereo not drawn) [Test Compound 12], the IC50 in assay [1] (setting [4]) is over 205 µM.

For `COC(=O)C1=C(C)NC(C)=C(C(=O)OCC/C=C/c2ccc(SC)cc2)C1c1cccc([N+](=O)[O-])c1` (stereo not drawn) [Test Compound 13, Methyl 4-(4-methylthiophenyl)-3(E)-butenyl 1,4-dihydro-2,6-dimethyl-4-(3-nitrophenyl)-pyridine-3,5-dicarboxylate], the figures for the IC50 in assay [1] (setting [4]) and in assay [2] were 0.452 µM and 0.122 µM, respectively.

With `COC(=O)C1=C(C)NC(C)=C(C(=O)OC/C=C/c2ccc(O)cc2)C1c1ccccc1` (stereo not drawn) [Test Compound 15, Methyl 3-(4-hydroxyphenyl)-2(E)-propenyl 1,4-dihydro-2,6-dimethyl-4-phenylpyridine-3,5-dicarboxylate], the IC50 in assay [1] (setting [4]) was 76.3 µM.

As for `COC(=O)C1=C(C)NC(C)=C(C(=O)OC/C=C/c2ccc(O)cc2)C1c1ccccc1C` (stereo not drawn) [Test Compound 16, Methyl 3-(4-hydroxyphenyl)-2(E)-propenyl 1,4-dihydro-2,6-dimethyl-4-(2-methylphenyl)-pyridine-3,5-dicarboxylate], the IC50 in assay [1] (setting [4]) is 134 µM.

Take `COC(=O)C1=C(C)NC(C)=C(C(=O)OC/C=C/c2cccc(O)c2)C1c1ccccc1[N+](=O)[O-]` (stereo not drawn) [Test Compound 17, Methyl 3-(3-hydroxyphenyl)-2(E)-propenyl 1,4-dihydro-2,6-dimethyl-4-(2-nitrophenyl)-pyridine-3,5-dicarboxylate]: the IC50 was 53 µM in assay [1] (setting [4]) and 1.94 µM in assay [2].

Take `COC(=O)C1=C(C)NC(C)=C(C(=O)OCCN(C)Cc2ccccc2)C1c1cccc([N+](=O)[O-])c1` (stereo not drawn) [Test Compound 18, Methyl 2-(N--methyl-N--benzylamino)ethyl 1,4-dihydro-2,6-dimetyyl-4-(3-nitrophenyl)pyridine-3,5-dicarboxylate, reference compound]: half-maximal inhibition in assay [1] (IC50) required 27.1 µM.

Turning to “methyl 4-[(1-ethoxy)ethoxy]cinnamyl 1,4-dihydro-2,6-dimethyl-4-(3-nitrophenyl)pyridine-3,5-dicarboxylate [Example 1]”, the “Blood pressure after the administration, difference from the PRE value” is -41.0 mm-Hg in assay [3] (24 hours); -52.0 mm-Hg in assay [3] (30 hours); -26.5 mm-Hg in assay [3] (48 hours); -19.8 mm-Hg in assay [3] (54 hours); -12.5 mm-Hg in assay [3] (72 hours).
